Experimental data: patent publication US10111822B2, “External dermal composition for anti-ageing and method for producing the same” (Hayashibara Co., Ltd., priority 2012, dated 2018)

How the values were obtained:
Filaggrin = experiment: Expression of proliferation marker protein filaggrin in NHEK cells (Western); assay type: cell-based, human; details: 5 days, control regarded as 50%
Procedure: Normal human epidermal keratinocytes from neonatal foreskin (NHEK cells) were prepared into 2.5×10^5 cells/mL with EpiLife medium, inoculated to 12-well plates in a volume of 1 mL/well, and cultured at 37° C. for one day under a 5% v/v CO2 condition. Thereafter, each supernatant was removed, and a medium, to which ascorbic acid 2-glucoside had been added to give a final concentration of 300 or 600 μM, was added to the resulting cells in a volume of 1 mL/well, followed by culturing the cells at 37° C. for two days under a 5% v/v CO2 condition. Another cell culture system, which had been similarly cultured in a medium free of ascorbic acid 2-glucoside, was provided as a control. The cells cultured with ascorbic acid 2-glucoside were further added with a medium supplemented with the same concentration of sodium salt of ascorbic acid 2-glucoside as that in the above medium in a volume of 1 mL/well, and cultured for another three days under the same conditions. […] Each of the resulting extract was centrifuged to collect a supernatant, and a part of which was subjected to protein quantification. […]

glutathione = experiment: Production level of glutathione in A431 cells; assay type: cell-based, human; details: 1 mM, 24 h, control = 100%
Procedure: To Dulbecco's MEM medium, containing 10% v/v calf fetal serum and an antibiotic (abbreviated as “D-MEM”, hereinafter), were added ascorbic acid 2-glucoside, a reagent grade specimen commercialized by Hayashibara Co., Ltd., Okayama, Japan, or L-ascorbic acid, a special reagent grade specimen commercialized by Wako Pure Chemical Industries, Ltd., Tokyo, Japan, […]
Continuously-cultivated A431 cells in D-MEM medium were collected, resuspended in D-MEM medium, inoculated to culture plates with 10 cm in diameter (φ) in an amount of 1×10^6 cells/10 mL/plate, and cultured for 24 hours. Thereafter, the culture supernatants were removed by sucking, and the remaining cells were added with any of the test solutions in an amount of 10 mL/plate and cultured for another 24 hours. As a control, cells were added with only D-MEM medium in an amount of 10 mL/plate and cultured for 24 hours. To each plate, which had been removed its culture supernatant, was added ice-chilled Dulbecco's PBS (−) commercialized by Nissui Pharmaceutical Co., Ltd., Tokyo, Japan, to wash cells, which were then collected with a scraper. Glutathione was quantified with “Glutathione Assay Kit”, a commercially available glutathione assay kit commercialized by BioVision, Inc., San Francisco, USA. In this experiment, the control and test solutions were respectively assayed by using three plates respectively, and the data were averaged for obtaining a glutathione production level for each plate. A5% v/v CO2 incubator was used for culturing A431 cells in any case. Relative values of test samples were determined with the proviso that the production levels of reduced glutathione and total glutathione levels in A431 cells that had been cultured with only D-MEM medium were respectively regarded as 100%, and the results are in Table 4.

With O=C1O[C@H]([C@@H](O)CO)C(O)=C1O[C@H]1O[C@H](CO)[C@@H](O)[C@H](O)[C@H]1O [ascorbic acid 2-glucoside, 2-O-α-D-glucosyl-L-ascorbic acid] the “Relative expression level, Filaggrin” value (Filaggrin; 300 μM) was 65%, the “Relative expression level, Filaggrin” value (Filaggrin; 600 μM) was 71% and the Total glutathione (glutathione) was 106%.
